Reference: US11014896B2, “TRPA1 and TRPV4 inhibitors and methods of using the same for organ-specific inflammation and itch” (Duke University, priority 2014, dated 2021)
“Also recorded” adds a separate entry of the source.

Legend:
human TRPV3 = target: T1, human TRPV3 (Homo sapiens, UniProt Q8NET8); experiment: Ca2+ signal in N2a cells transfected with human TRPV3; format: cell-based; conditions: stimulation with camphor
T1 construct: expressed in transfected cells; host or cells: N2a cells
T1 sequence (Q8NET8 1-790): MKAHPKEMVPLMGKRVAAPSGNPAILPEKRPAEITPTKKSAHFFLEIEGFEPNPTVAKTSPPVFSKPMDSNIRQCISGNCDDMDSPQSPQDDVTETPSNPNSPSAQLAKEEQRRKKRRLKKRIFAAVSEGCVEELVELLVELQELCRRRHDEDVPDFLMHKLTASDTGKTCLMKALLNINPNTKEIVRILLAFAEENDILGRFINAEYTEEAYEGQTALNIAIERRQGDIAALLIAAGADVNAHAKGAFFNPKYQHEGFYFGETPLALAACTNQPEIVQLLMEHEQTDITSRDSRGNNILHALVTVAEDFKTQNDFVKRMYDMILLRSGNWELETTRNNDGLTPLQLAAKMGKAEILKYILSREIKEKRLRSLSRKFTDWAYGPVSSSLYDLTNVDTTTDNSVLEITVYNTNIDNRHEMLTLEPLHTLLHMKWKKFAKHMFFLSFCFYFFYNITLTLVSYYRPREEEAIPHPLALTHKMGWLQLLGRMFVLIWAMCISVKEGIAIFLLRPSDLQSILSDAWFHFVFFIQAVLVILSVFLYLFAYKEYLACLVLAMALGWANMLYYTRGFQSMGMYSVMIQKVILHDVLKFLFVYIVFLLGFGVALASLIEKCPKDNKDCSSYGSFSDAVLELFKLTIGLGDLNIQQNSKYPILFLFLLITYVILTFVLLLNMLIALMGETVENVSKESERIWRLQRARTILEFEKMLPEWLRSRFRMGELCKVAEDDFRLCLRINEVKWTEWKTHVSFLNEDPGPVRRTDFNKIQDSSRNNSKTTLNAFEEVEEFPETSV
Method: Compounds were tested for their effect on TRPV1, TRPV2, and TRPV3. Methods were similar to those described in Example 15. Briefly, N2a cells were transfected with human TRPV1, TRPV2, or TRPV3. eGFP-transfection was used as control. For specific stimulation of TRPV1, 5 μM capsaicin was used. For stimulation of TRPV2, hypotonicity (260 mosmol/L) was used, based on previous reports of TRPV2 being osmotically responsive. N2a cells were not responsive to hypotonicity, and neither were control-transfected cells. For TRPV3-expressing cells, camphor (20% of a commercially available stock solution) was used. […] Stimulation and control protocols were applied as for TRPA1-expressing N2a cells as detailed above in Example 15.

IL-1β = experiment: Keratinocyte IL-1β expression in UVB-exposed footpad after topical treatment; format: in vivo, mouse; conditions: 5 mM GSK205 topical
Method: GSK205 topical treatment: A viscous solution of 68% EtOH/5% glycerol plus 1 mM or 5 mM GSK205 (none for control) was applied to hindpaws by rubbing in 20 μL, applied at time-points 1 hour and again 10 min before UV exposure.
Routine procedures were followed as described previously (Chen et al., 2009). Mice were perfused transcardially with 30 mL PBS, followed by 30 mL 4% paraformaldehyde. Tissues, including the L5 DRGs (bilateral), and footpad preparations, were dissected and post-fixed in 4% paraformaldehyde. Tissue blocks were further cryoprotected in 30% sucrose in PBS for 24-48 hours. For mouse TRPV4, keratin-specific antibodies, phospho-ERK, IL-6, IL-1β, CXCL5 and caspase-1, tissue was prepared as frozen blocks and subsequently sectioned on a cryostat. For CD68, CD15 (neutrophil elastase) and CD3, mouse skin was prepared by 2% PFA perfusion. […]

TRPV4 = TRPV4 (Homo sapiens, UniProt Q9HBA0); experiment: UVB-evoked Ca++ transient in TRPV4-transfected HEK293T cells; format: cell-based; design: expressed in transfected cells; host or cells: HEK293T cells; conditions: pre-exposure to 20 μM GSK205
Chain of TRPV4 (Q9HBA0 whole entry, species assumed): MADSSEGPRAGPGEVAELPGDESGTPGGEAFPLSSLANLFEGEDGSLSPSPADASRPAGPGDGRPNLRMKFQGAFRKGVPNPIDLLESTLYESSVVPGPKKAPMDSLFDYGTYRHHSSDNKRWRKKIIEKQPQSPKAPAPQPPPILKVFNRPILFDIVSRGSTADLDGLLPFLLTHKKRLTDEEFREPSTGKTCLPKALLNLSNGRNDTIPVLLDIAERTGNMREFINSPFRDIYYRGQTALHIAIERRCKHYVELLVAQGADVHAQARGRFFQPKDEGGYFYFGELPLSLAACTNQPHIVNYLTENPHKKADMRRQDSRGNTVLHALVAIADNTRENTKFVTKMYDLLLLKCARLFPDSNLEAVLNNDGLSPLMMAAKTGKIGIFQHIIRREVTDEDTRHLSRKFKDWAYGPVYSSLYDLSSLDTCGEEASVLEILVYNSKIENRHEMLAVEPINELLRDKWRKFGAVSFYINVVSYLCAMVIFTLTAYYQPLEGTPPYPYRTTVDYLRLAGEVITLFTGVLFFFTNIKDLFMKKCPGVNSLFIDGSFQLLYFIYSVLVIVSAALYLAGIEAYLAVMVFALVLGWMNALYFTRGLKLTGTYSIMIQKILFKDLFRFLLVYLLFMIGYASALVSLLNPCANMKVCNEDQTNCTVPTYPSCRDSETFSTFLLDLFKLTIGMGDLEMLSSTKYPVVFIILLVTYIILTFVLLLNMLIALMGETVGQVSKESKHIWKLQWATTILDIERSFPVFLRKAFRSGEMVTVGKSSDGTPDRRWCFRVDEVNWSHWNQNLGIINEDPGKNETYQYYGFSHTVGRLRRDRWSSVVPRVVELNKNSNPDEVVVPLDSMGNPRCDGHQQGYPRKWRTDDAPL

ET1 = ET1 expression by UVB-exposed 1° MK (immunocytochemistry); format: cell-based, mouse; conditions: cells preincubated with inhibitor
Method: 1° MK were exposed to UVB using the UV optical system (295 nm LED). 24 hours later the cells were fixed and fluorescently immunolabeled for ET1. Digital images were captured and subjected to morphometry.
Mouse keratinocytes were cultured on collagen coated quartz coverslips and then stimulated from the bottom using the previously mentioned UV optical system using the 295 nm LED. 24 hours later the cells were fixed in 4% formaldehyde in PBS for 20 minutes, permeabilized with 0.1% Triton X-100 in PBS for 10 minutes, washed, then blocked in 10% normal goat serum in PBS for 45 minutes. Coverslips were incubated overnight with primary antibody mouse anti-ET1 (1:200; Abcam), washed three times in PBS and incubated with secondary antibody for 2 hours at 25° C. Coverslips were washed three times in PBS, once with double-distilled H2O. Digital images were captured using a 40× immersion lens on the BX61 Olympus upright microscope. Morphometric analysis was conducted using ImageJ freeware with tailored regions-of-interest.

CN(CCc1ccc(Nc2nc(-c3ccccc3)cs2)cc1)Cc1ccccc1 [Compound 16-8]
Ca2+ transience on TRPV3 stimulation (human TRPV3): not affected

CN(CCc1ccc(Nc2nc(-c3cccnc3)cs2)cc1)Cc1ccccc1 [GSK205]
keratinocyte expression of IL-1β in UVB-exposed footpad (IL-1β): failed to upregulate; also recorded: attenuates keratinocyte expression of IL-1β | UVB-evoked Ca++ signal in TRPV4-transfected HEK293T cells (TRPV4): blocked; also recorded: virtually eliminates | ET1 immunoreactivity (ET1): diminished; also recorded: significant down-regulation
